Test results: patent US20180284095A1, “BIOMARKERS ASSOCIATED WITH LSD1 INHIBITORS AND USES THEREOF” (Oryzon Genomics, S.A., priority 2015, published 2018)

What was measured:
TUBB2C = experiment: Microarray gene expression in brain, spleen and liver of Hsd:Athymic Nude-Foxn1nu mice (Example 7), housekeeping gene; type: in vivo, mouse
Experimental: Total RNA was extracted from samples using the RNeasy extraction kit (Qiagen). The quality and concentration of the RNA was analyzed using the Agilent 2100 bioanalyzer and NanoDrop™ ND-1000 (Thermo Scientific). Samples with RNA integrity number (RIN)<6.0 were discarded. Total RNA (0.5 μg) amplification and labelling with Cy3 or Cy5 was carried out using the Eberwein mRNA amplification procedure (Van Gelder et al, Proc Natl Acad Sci USA 1990, 87:1663-1667) employing the MessageAmp™ aRNA amplification kit from Ambion (Applied Biosystems) following the manufacturer's instructions with minor modifications. As hybridization controls, plant mRNAs were transcribed from a plasmid containing the Zea mays Xet (xyloglucan endo-transglycosylase) cDNA and from a plasmid containing the Zea mays Zmmyb42 cDNA, independently prepared Cy3 and Cy5 labelled aRNA from these two RNAs using the Eberwein mRNA amplification procedure (as disclosed in Cerdà et al, Gen Comp Endocrinol 2008, 156:470-481).
The Cy3- and Cy5-labelled cRNAs and spikes were combined and hybridized to the microarray described in Example 2.6 for 17 h at 60° C. using Agilent's gaskets G2534-60002, G2534A hybridization chambers and DNA Hybridization Oven G2545A, according to the manufacturer's instructions. More specifically, equal amounts of Cy3 and Cy5 labeled Xet aRNA as well as equal amounts of Cy3 and Cy5 labeled Zmmyb42 aRNA were spiked into each mixture hybridized to the array. Arrays were washed and raw data were obtained using Agilent's DNA Microarray Scanner G2505B and Feature Extraction software (v10.1). The raw fluorescence intensity data were processed using applicant's proprietary software, and consists in the following operations:
Data normalization was carried out by an improved version of the nonlinear Q-splines normalization method (Workman et al., Genome Biol 2002, 3(9):research0048.1-0048.16). Normalization results were presented graphically as MA plots, as first described by Dudoit et al (Dudoit et al, Statistica Sinica, 2002, 12:111-139). Each point corresponds to a probe of the DNA array. M values (vertical axis) are the log-differential expression ratios. A values (horizontal axis) are the log-intensities of the spots. M and A are calculated from the Cy5 and Cy3 intensity values as of each spot. The DNA Array data is normalized using an improved version of non-linear Q-Splines normalization described by Workman et al., Genome Biol 2002, 3(9):research0048.1-0048.16. This process is useful to correct the deviation of the M values from the statistical assumption that most of the spots have M=0 in MA plots. The method allows the adjustment of all M values to form a cloud centered at M=0 in all intensity ranges. The data used to calculate the normalization fitting curve is the totality of the raw measurement dataset, excluding the signals for the probes for the spiked-in plant RNA controls and negative controls. In order to be able to normalize properly the data among all the experiments, the probe-set must include an important group of genes that should have no change (M=0) in the experiment. The normalization function is then applied to all the data, including controls.
Normalized and log-transformed data were used to calculate log 2 (sample/control) and Fold Change (FC) values. No background subtraction was applied to the signal intensity values during data processing, permitting robust selection of differentially expressed genes with low expression levels at the cost of potential sub-estimation of change when intensity levels are close to the array background level.
Powered Compound 3, 4 or 5 was dissolved in a 20% solution of 2-hydroxypropyl-R-cyclodextrin in water at the appropriate concentrations, vortexed and placed in an ultrasonic bath for 5 minutes.
Hsd:Athymic Nude-Foxn1nu mice were maintained in air- and temperature-controlled cages with regular supply of water and food. A maximum of 6 mice/cage were raised. […]

[1] = target: T1, Human recombinant LSD1 protein (Homo sapiens, UniProt O60341); experiment: LSD1 in vitro biochemical assay (Amplex Red, di-methylated H3-K4 peptide)
T1 construct: amino acids 158-end with N-terminal GST tag; purchased BPS Bioscience Inc 50100
Text: The inhibitory activity of a compound of interest against LSD1 can be tested using the method described below: Human recombinant LSD1 protein from BPS Bioscience Inc (catalog reference number 50100: human recombinant LSD1, GenBank accession no. NM_015013, amino acids 158-end with N-terminal GST tag, MW: 103 kDa) was used. In order to monitor LSD1 enzymatic activity and/or its inhibition rate by a test compound, di-methylated H3-K4 peptide (Anaspec) was chosen as a substrate. The demethylase activity was estimated, under aerobic conditions, by measuring the release of H2O2 produced during the catalytic process, using the Amplex® Red hydrogen peroxide/peroxidase assay kit (Invitrogen).
Briefly, a fixed amount of LSD1 was incubated on ice for 15 minutes, in the absence and/or in the presence of at least eight 3-fold serial dilutions of the respective inhibitor (e.g., from 0 to 75 μM, depending on the inhibitor strength). Tranylcypromine (Biomol International) was used as a control for inhibition. Within the experiment, each concentration of inhibitor was tested in duplicate. After leaving the enzyme interacting with the inhibitor, KM of di-methylated H3-K4 peptide was added to each reaction and the experiment was left for 30 minutes at 37° C. in the dark. The enzymatic reactions were set up in a 50 mM sodium phosphate, pH 7.4 buffer. At the end of the incubation, Amplex® Red reagent and horseradish peroxidase (HPR) solution were added to the reaction according to the recommendations provided by the supplier (Invitrogen), and left to incubate for 5 extra minutes at room temperature in the dark. A 1 μM H2O2 solution was used as a control of the kit efficiency. The conversion of the Amplex® Red reagent to resorufin due to the presence of H2O2 in the assay, was monitored by fluorescence (excitation at 540 nm, emission at 590 nm) using a microplate reader (Infinite 200, Tecan). Arbitrary units were used to measure level of H2O2 produced in the absence and/or in the presence of inhibitor. The maximum demethylase activity of LSD1 was obtained in the absence of inhibitor and corrected for background fluorescence in the absence of LSD1. The IC50 value of each inhibitor was calculated with GraphPad Prism Software.

Compound: NC(=O)CN[C@H]1C[C@@H]1c1ccc(OCc2ccccc2)cc1 (racemic) [Compound 3, 2-(((trans)-2-(4-(benzyloxy)phenyl)cyclopropyl)amino)acetamide]
- Hybridization signal sample_Cy5 (TUBB2C; BRAIN, 5 mg/kg): 5903.12
- log2 (sample/control) (TUBB2C; BRAIN, 5 mg/kg vs VEH): 0.09115
- Hybridization signal sample_Cy5 (TUBB2C; BRAIN, 10 mg/kg): 6228.65
- log2 (sample/control) (TUBB2C; BRAIN, 10 mg/kg vs VEH): −0.008955
- Hybridization signal sample_Cy5 (TUBB2C; BRAIN, 20 mg/kg): 6935.27
- log2 (sample/control) (TUBB2C; BRAIN, 20 mg/kg vs VEH): 0.07289
- Hybridization signal sample_Cy5 (TUBB2C; BRAIN, 40 mg/kg): 7405.34
- log2 (sample/control) (TUBB2C; BRAIN, 40 mg/kg vs VEH): 0.06328
- Hybridization signal sample_Cy5 (TUBB2C; LIVER, 5 mg/kg): 2676.03
- log2 (sample/control) (TUBB2C; LIVER, 5 mg/kg vs VEH): −0.1194
- Hybridization signal sample_Cy5 (TUBB2C; LIVER, 10 mg/kg): 2301.43
- log2 (sample/control) (TUBB2C; LIVER, 10 mg/kg vs VEH): −0.2687
- Hybridization signal sample_Cy5 (TUBB2C; LIVER, 20 mg/kg): 2059.18
- log2 (sample/control) (TUBB2C; LIVER, 20 mg/kg vs VEH): −0.578
- Hybridization signal sample_Cy5 (TUBB2C; LIVER, 40 mg/kg): 1551.2
- log2 (sample/control) (TUBB2C; LIVER, 40 mg/kg vs VEH): −0.9728
- Hybridization signal sample_Cy5 (TUBB2C; SPLEEN, 5 mg/kg): 6245.92
- log2 (sample/control) (TUBB2C; SPLEEN, 5 mg/kg vs VEH): −0.05272
- Hybridization signal sample_Cy5 (TUBB2C; SPLEEN, 10 mg/kg): 4019.89
- log2 (sample/control) (TUBB2C; SPLEEN, 10 mg/kg vs VEH): −0.4863
- Hybridization signal sample_Cy5 (TUBB2C; SPLEEN, 20 mg/kg): 4597.76
- log2 (sample/control) (TUBB2C; SPLEEN, 20 mg/kg vs VEH): −0.4097
- Hybridization signal sample_Cy5 (TUBB2C; SPLEEN, 40 mg/kg): 8986.8
- log2 (sample/control) (TUBB2C; SPLEEN, 40 mg/kg vs VEH): −0.9476
- IC50 [1]: 0.16 µM

Compound: CN1CCN(C(=O)CN[C@H]2C[C@@H]2c2ccc(OCc3ccccc3)cc2)CC1 (racemic) [Compound 4, 2-(((trans)-2-(4-(benzyloxy)phenyl)cyclopropyl)amino)-1-(4-methylpiperazin-1-yl)ethan-1-one]
- Hybridization signal sample_Cy5 (TUBB2C; BRAIN, 1 mg/kg): 10016.7
- log2 (sample/control) (TUBB2C; BRAIN, 1 mg/kg vs VEH): −0.04912
- Hybridization signal sample_Cy5 (TUBB2C; BRAIN, 3 mg/kg): 9877.42
- log2 (sample/control) (TUBB2C; BRAIN, 3 mg/kg vs VEH): −0.06585
- Hybridization signal sample_Cy5 (TUBB2C; BRAIN, 10 mg/kg): 11991.7
- log2 (sample/control) (TUBB2C; BRAIN, 10 mg/kg vs VEH): −0.04291
- Hybridization signal sample_Cy5 (TUBB2C; LIVER, 1 mg/kg): 4327.04
- log2 (sample/control) (TUBB2C; LIVER, 1 mg/kg vs VEH): 0.2971
- Hybridization signal sample_Cy5 (TUBB2C; LIVER, 3 mg/kg): 3201.33
- log2 (sample/control) (TUBB2C; LIVER, 3 mg/kg vs VEH): 0.1069
- Hybridization signal sample_Cy5 (TUBB2C; LIVER, 10 mg/kg): 3143.68
- log2 (sample/control) (TUBB2C; LIVER, 10 mg/kg vs VEH): 0.3292
- Hybridization signal sample_Cy5 (TUBB2C; SPLEEN, 1 mg/kg): 13305.5
- log2 (sample/control) (TUBB2C; SPLEEN, 1 mg/kg vs VEH): −0.3124
- Hybridization signal sample_Cy5 (TUBB2C; SPLEEN, 3 mg/kg): 11689.6
- log2 (sample/control) (TUBB2C; SPLEEN, 3 mg/kg vs VEH): −0.4339
- Hybridization signal sample_Cy5 (TUBB2C; SPLEEN, 10 mg/kg): 6541.2
- log2 (sample/control) (TUBB2C; SPLEEN, 10 mg/kg vs VEH): −1.316

Compound: N[C@H]1CCN(CCN[C@H]2C[C@@H]2c2ccc(-c3cccc(C(F)(F)F)c3)cc2)C1 (racemic) [Compound 5, (S)-1-(2-(((trans)-2-(3′-(trifluoromethyl)-[1,1′-biphenyl]-4-yl)cyclopropyl)amino)ethyl)pyrrolidin-3-amine]
- Hybridization signal sample_Cy5 (TUBB2C; BRAIN, 3.3 mg/kg): 10642
- log2 (sample/control) (TUBB2C; BRAIN, 3.3 mg/kg vs VEH): −0.01396
- Hybridization signal sample_Cy5 (TUBB2C; BRAIN, 11 mg/kg): 11161.1
- log2 (sample/control) (TUBB2C; BRAIN, 11 mg/kg vs VEH): −0.06127
- Hybridization signal sample_Cy5 (TUBB2C; BRAIN, 33 mg/kg): 12584.1
- log2 (sample/control) (TUBB2C; BRAIN, 33 mg/kg vs VEH): −0.05145
- Hybridization signal sample_Cy5 (TUBB2C; LIVER, 3.3 mg/kg): 3670.67
- log2 (sample/control) (TUBB2C; LIVER, 3.3 mg/kg vs VEH): 0.3692
- Hybridization signal sample_Cy5 (TUBB2C; LIVER, 11 mg/kg): 3985.13
- log2 (sample/control) (TUBB2C; LIVER, 11 mg/kg vs VEH): 0.457
- Hybridization signal sample_Cy5 (TUBB2C; LIVER, 33 mg/kg): 4335.41
- log2 (sample/control) (TUBB2C; LIVER, 33 mg/kg vs VEH): 0.3205
- Hybridization signal sample_Cy5 (TUBB2C; SPLEEN, 3.3 mg/kg): 8986.8
- log2 (sample/control) (TUBB2C; SPLEEN, 3.3 mg/kg vs VEH): −0.9476
- Hybridization signal sample_Cy5 (TUBB2C; SPLEEN, 11 mg/kg): 9222.71
- log2 (sample/control) (TUBB2C; SPLEEN, 11 mg/kg vs VEH): −0.8739
- Hybridization signal sample_Cy5 (TUBB2C; SPLEEN, 33 mg/kg): 6535.64
- log2 (sample/control) (TUBB2C; SPLEEN, 33 mg/kg vs VEH): −1.41
- IC50 [1]: 0.06 µM

Compound: (+) 5-((((trans)-2-(4-(benzyloxy)phenyl)cyclopropyl)amino)methyl)-1,3,4-oxadiazol-2-amine [Compound 2]
- IC50 [1]: 2.3 µM

Compound: (−) 5-((((trans)-2-(4-(benzyloxy)phenyl)cyclopropyl)amino)methyl)-1,3,4-oxadiazol-2-amine [Compound 1]
- IC50 [1]: 0.09 µM
